Test results: patent US7851610B2, “Transporter protein” (Ajinomoto Co., Ltd., priority 2003, dated 2010)

Assays:
MHPH6 [1] = molecular target: T1, MHPH6 (Microbacterium maritypicum, UniProt D6R8X8); test: Uptake assay using intact cells of E. coli BLR/pSHP11H (RI-labelled substrate); type: cell-based; conditions: for initial uptake rate / uptake amount 5 minutes after the addition of the substrate: induced E. coli BLR/pSHP11H, 25 μM substrate; for initial uptake rate: data at 15 seconds after substrate addition; for uptake amount 5 minutes after the addition of the substrate: pH 6.6, 25° C., per dry cell weight
T1 construct: expressed in transfected cells; host or cells: E. coli BLR transformed with pSHP11H (pTTQ18 derivative), IPTG-induced
T1 sequence (D6R8X8 with tags, fused parts or gaps): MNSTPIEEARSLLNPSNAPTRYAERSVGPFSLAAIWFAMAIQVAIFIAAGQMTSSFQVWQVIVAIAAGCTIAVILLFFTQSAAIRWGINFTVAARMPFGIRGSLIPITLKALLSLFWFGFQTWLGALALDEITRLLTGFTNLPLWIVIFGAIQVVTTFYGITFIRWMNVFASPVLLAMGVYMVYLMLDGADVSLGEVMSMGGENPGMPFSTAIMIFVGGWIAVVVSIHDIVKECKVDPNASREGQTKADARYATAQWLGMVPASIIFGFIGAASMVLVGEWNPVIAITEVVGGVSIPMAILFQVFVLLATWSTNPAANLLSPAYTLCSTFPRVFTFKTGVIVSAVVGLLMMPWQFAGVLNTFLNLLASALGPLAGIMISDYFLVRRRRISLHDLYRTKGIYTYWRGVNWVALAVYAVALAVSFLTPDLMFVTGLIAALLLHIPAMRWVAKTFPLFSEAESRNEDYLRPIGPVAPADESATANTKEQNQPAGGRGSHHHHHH
Description: The activity of the hydantoin transporter can be measured by an uptake assay using intact cells. The uptake assay using intact cells may be carried out in accordance with the method of West, and Henderson (I. C. West (1970) Lactose transport coupled to proton movements in Escherichia coli, Biochem. Biophys. Res. Commun. 41: 655-661; P. J. F. Henderson and A. J. S. Macpherson (1986), Assay, genetics, proteins, and reconstitution of proton-linked galactose, arabinose, and xylose transport systems of Escherichia coli, Methods Enzymol. 125: 387-429).
Specifically, the uptake reaction may be carried out by adding an RI-labelled substrate (^3H—BH (benzyl hydantoin), ^3H—IMH (indolylmethyl hydantoin)) to a suspension of the cells that express the hydantoin transporter. After initiating the reaction, sampling may be conducted at time intervals. Immediately after sampling, each aliquot may be collected by a filter of 0.45 μm pore size (preincubated in a washing liquid of 150 mM KCl, 5 mM MES (pH 6.6)) and washed thoroughly by the rinsing liquid. Thereafter, by measuring radioactivity remaining on the filter with a liquid scintillation counter, the substrate uptaken into the cells is quantified, and the hydantoin-transporter activity can be determined.
The methods of West (I. C. West (1970), Lactose transport coupled to proton movements in Escherichia coli. Biochem. Biophys. Res. Commun. 41: 655-661.) and Henderson (P. J. F. Henderson and A. J. S. Macpherson (1986), Assay, genetics, proteins, and reconstitution of proton-linked galactose, arabinose, and xylose transport systems of Escherichia coli, Methods Enzymol. 125: 387-429.) were employed.
The collected cells were washed three times with 150 mM KCl, 5 mM MES (2-[N-Morpholino]ethanesulphonic acid) (pH 6.6) and were then used in the assay. The basic reaction conditions included uptake initiation by adding glycerol to a final concentration of 20 mM to a cell suspension having an absorbance at about A680 of approximately 2 to 4, followed by aeration at 25° C. for 3 minutes, and then addition of an RI-labelled substrate (relative RI activity: ^3H—BH 107 Bq/nmol, ^3H—IMH 241 Bq/nmol) to a final concentration of 25 μM. After the onset of the reaction (aeration was continued), sampling was done over time. Immediately after the sampling, each aliquot was passed through a filter with a pore size of 0.45 μm (pre-incubated in a washing solution of 150 mM KCl and 5 mM MES (pH 6.6)) which was then washed sufficiently with a washing solution. The radiation remaining on the filter was measured by a liquid scintillation counter. The uptake activity was expressed in terms of the dry cell weight that was calculated by taking the absorbance A680=1 as the dry cell concentration of 0.68 mg/ml (Ashworth and Kornberg, Biological Science, 165(999):179-188 (1966)). Furthermore, the initial uptake rate was calculated based on the data obtained at 15 seconds after the addition of substrate, and expressed in terms of the uptake amount per minute.
In the measurement of the inhibitory activity of the inhibitor, the inhibitor was added at the time of onset of aeration. That is, it was pre-incubated with the cells for 3 minutes prior to the substrate addition. The inhibitor used was 2,4-dinitrophenol (DNP), and the final concentration during the reaction was 20 mM.
For varying the pH of the reaction liquid, 10 mM potassium acetate (pH 4.0), 5 mM MES (pH 4.9, 6.1, 6.6, 7.1, 7.9), 10 mM Tris-HCl (pH 8.0) and 10 mM glycin-NaOH (pH 10.0) were used when appropriate.

MHPH6 [2] = molecular target: T1, MHPH6; test: Substrate screening: competitive inhibition of 3H-L-BH uptake by E. coli BLR/pSHP11H; type: cell-based, Microbacterium liquefaciens AJ3912; conditions: for competitive inhibitory activity against L-BH uptake (in words): 250 μM cold candidate; for competitive inhibitory activity against L-BH uptake (in words) / uptake activity of 3H-L-BH (relative activity, no compound added = 100%): uptake after 3 minutes; for uptake activity of 3H-L-BH (relative activity, no compound added = 100%): 250 μM cold compound; for relative affinity for MHPH6 (affinity of L-BH = 1): curve-fitted assuming simple competitive inhibition, variety of concentrations
Protocol: 25 μM of ^3H-L-BH was employed as the RI-labeled substrate in the above-described reaction using intact cells, and a reaction liquid was prepared by adding 250 μM of a candidate substrate (cold). The uptake amount of ^3H-L-BH after 3 minutes from the addition thereof was compared with the amount without the candidate substrate, to calculate the competitive inhibitory activity of each candidate substrate against L-BH, for evaluating the potentiality of each candidate substance as the substrate for MHP.
Affinity of a variety of compounds to MHPH6 was measured based on the competitive inhibitory activity thereof against L-BH uptake by E. coli BLR/pSHP11H, to search for substrates for MHPH6 (FIG. 8). […] When the four compounds showing strong inhibitive activity were added, the uptake activities of ^3H-L-BH (the relative activity with respect to when not adding any compound as 100%) were 7% (L-BH, theoretical value 9%), 47% (D-BH), 3% (L-IMH) and 24% (D- IMH).
The competitive inhibition experiments were carried out, as for substrate screening, with a variety of substrate concentrations. As a result, the affinity of D- and L-BH and D- and L-IMH for MHPH6 was different from one another, and the intensity of the affinity was in the order of L-IMH (solid triangle), L-BH (solid circle), D-IMH (open triangle) and D-BH (open circle) from the strongest. Assuming that ^3H-L-BH and the added cold compound were under simple competitive inhibition, the experimental results were curve-fitted. As a result, the relative affinity for each compound was calculated to be 5.32 (L-IMH), 1.05 (L-BH, experimental value), 0.96 (D-IMH), and 0.20 (D-BH), with respect to the affinity of L-BH and MHPH6 being 1.

[3] = CD spectroscopy heat stability of purified MHPH6; type: physicochemical
Protocol: The buffer solution suspending the purified MHPH6 was replaced by 10 mM sodium phosphate (pH 7.6) with 0.05% (w/v) DDM, using an ultrafiltration apparatus (Centricon C50, Millipore). In this buffer solution, the protein concentration was adjusted to 50 μg/ml, and the CD spectroscopy was carried out at 10° C. (JASCO J-715 Spectropolarimeter). The measurement was performed at a wavelength ranging from 190 to 260 nm, and the average value of twenty measurements was taken. Furthermore, the change in the secondary structure of MHPH6 (heat stability) was observed by measuring the change of the CD unit value at a wavelength of 222 nm as the temperature of the sample was varied from 10° C.→90° C.→10° C. (the temperature change was made 10° C. at a time, and the length of time at each temperature was approximately 10 minutes).

[4] = CD at 222 nm, 10 mM sodium phosphate pH 7.6, 0.05% DDM

## O=C1NC(=O)C(Cc2ccccc2)N1 [L-BH, 5-L-benzyl hydantoin]
MHPH6 [1]
  initial uptake rate: 0.64 nmol/mg/min
  uptake amount 5 minutes after the addition of the substrate: 0.27 nmol/mg
MHPH6 [2]; 250 μM cold L-BH, 25 μM 3H-L-BH
  uptake activity of 3H-L-BH, theoretical value: 9%
MHPH6 [2]; 25 μM 3H-L-BH
  competitive inhibitory activity against L-BH uptake (in words): strong activity of competitive inhibition
  uptake activity of 3H-L-BH (relative activity, no compound added = 100%): 7%
MHPH6 [2]
  relative affinity for MHPH6 (affinity of L-BH = 1): 1.05

## NC(=O)NC1NC(=O)NC1=O (centres unmarked) [allantoin, reference compound]
MHPH6 [2]; 25 μM 3H-L-BH
  competitive inhibitory activity against L-BH uptake (in words): did not result in any inhibition

## O=C1NC(=O)[C@@H](Cc2ccccc2)N1 [D-BH]
MHPH6 [2]; 25 μM 3H-L-BH
  competitive inhibitory activity against L-BH uptake (in words): strong activity of competitive inhibition
  uptake activity of 3H-L-BH (relative activity, no compound added = 100%): 47%
MHPH6 [2]
  relative affinity for MHPH6 (affinity of L-BH = 1): 0.20

## CC(C)CC1NC(=O)NC1=O (racemic) [5-DL-isobutyl hydantoin]
MHPH6 [2]; 25 μM 3H-L-BH
  competitive inhibitory activity against L-BH uptake (in words): Weaker inhibitory activity

## O=C1NC(=O)[C@@H](Cc2c[nH]c3ccccc23)N1 [D-IMH]
MHPH6 [2]; 25 μM 3H-L-BH
  competitive inhibitory activity against L-BH uptake (in words): strong activity of competitive inhibition
  uptake activity of 3H-L-BH (relative activity, no compound added = 100%): 24%
MHPH6 [2]
  relative affinity for MHPH6 (affinity of L-BH = 1): 0.96

## CC1NC(=O)NC1=O (racemic) [5-DL-methyl hydantoin]
MHPH6 [2]; 25 μM 3H-L-BH
  competitive inhibitory activity against L-BH uptake (in words): Weaker inhibitory activity

## O=C1NC(=O)C(Cc2ccc(O)cc2)N1 (racemic) [5-DL-p-hydroxybenzyl hydantoin]
MHPH6 [2]; 25 μM 3H-L-BH
  competitive inhibitory activity against L-BH uptake (in words): Weaker inhibitory activity

## CC(C)C[C@@H]1NC(=O)NC1=O [5-L-isobutyl hydantoin]
MHPH6 [2]; 25 μM 3H-L-BH
  competitive inhibitory activity against L-BH uptake (in words): Weaker inhibitory activity

## O=C1NC(=O)[C@H](Cc2c[nH]c3ccccc23)N1 [L-IMH, 5-L-indolylmethyl hydantoin]
MHPH6 [1]
  initial uptake rate: 2.5 nmol/mg/min
  uptake amount 5 minutes after the addition of the substrate: 0.91 nmol/mg
MHPH6 [1]; pH 4.0
  initial uptake rate as compared with the initial rate at pH 6.6: approximately 10%
MHPH6 [1]; pH 10.0
  initial uptake rate as compared with the initial rate at pH 6.6: approximately 10%
MHPH6 [1]; pH varied between 4.0 and 10.0, induced and uninduced samples
  pH at which initial uptake rate is maximal: 6.6
MHPH6 [1]; ratio L-IMH / L-BH
  initial uptake rate, L-IMH relative to L-BH: 3.9 times
  uptake amount 5 minutes after addition of substrate, L-IMH relative to L-BH: 3.4 times
MHPH6 [2]; 25 μM 3H-L-BH
  competitive inhibitory activity against L-BH uptake (in words): strong activity of competitive inhibition
  uptake activity of 3H-L-BH (relative activity, no compound added = 100%): 3%
MHPH6 [2]; L-IMH versus L-BH
  affinity relative to that of L-BH (estimated): approximately 5 times
MHPH6 [2]
  relative affinity for MHPH6 (affinity of L-BH = 1): 5.32

## O=[N+]([O-])c1ccc(O)c([N+](=O)[O-])c1 [DNP, 2,4-dinitrophenol, reference compound]
MHPH6 [1]; DNP 20 mM, pre-incubated 3 minutes, induced sample
  effect on L-IMH uptake, induced sample: decreased the amount of L-IMH uptake
MHPH6 [1]; DNP 20 mM, pre-incubated 3 minutes, uninduced sample
  effect on L-IMH uptake, uninduced sample: substantially no effect

## CC(C)C1NC(=O)NC1=O (racemic) [5-DL-isopropyl hydantoin]
MHPH6 [2]; 25 μM 3H-L-BH
  competitive inhibitory activity against L-BH uptake (in words): Weaker inhibitory activity

## CC(C)[C@@H]1NC(=O)NC1=O [5-L-isopropyl hydantoin]
MHPH6 [2]; 25 μM 3H-L-BH
  competitive inhibitory activity against L-BH uptake (in words): Weaker inhibitory activity

B1: MHPH6: MHP hydantoin transporter protein containing the RGSHis6-Tag at the C-terminal (SEQ ID No. 3/4) (protein)
chain: T1 sequence (D6R8X8 with tags, fused parts or gaps)
modifications: C-terminal RGSHis6 tag; RGSH6
[3]; [4]
  temperature at which higher structure began to be destroyed: ≥ 30 °C
  temperature at which higher structure was almost completely destroyed: 70 °C
[3]; temperature 10→90→10° C.
  reversibility of thermal denaturation: irreversible
